# Experimental data taken from patent publication US20040087572A1, “Method for inhibiting cataracts” (priority 2003, published 2004).
# Columns and labels:
# [1] = test system: chloride channels in the lens; conditions: organ culture, clinically relevant concentrations; cited from earlier work
# endometrium / uterus = conditions: clinical studies in women; cited from earlier work
# [2] = test system: postmenopausal women (cataracts); test: Phase 3 placebo-controlled clinical trial: cataract treatment-emergent signs and symptoms (TESS) events; format: in vivo, human
# Experimental: A phase 3, multicenter, double-blind, placebo-controlled, randomized clinical trial was conducted. The trial included 7705 women (mean age 67 years old), who were an average of 19 years postmenopausal. These patients were randomly assigned to the following treatment protocol: raloxifene hydrochloride at 60 mg per day via oral administration, raloxifene at 120 mg per day, or placebo. The study was conducted for a period of 48 months. As a portion of the patient's overall evaluation, various clinical tests and parameters were measured at periodic intervals.
# The following tables provide summaries of select cataract treatment-emergent signs and symptoms (“TESS”) events for various patient populations at the thirty-six and the forty-eight month mark of the clinical trial.
# [3] = All Randomized Patients, 36-Month Data, Rlx60 (60 mg per day oral), N = 2557
# [4] = All Randomized Patients, 36-Month Data, Rlx120 (120 mg per day), N = 2572
# [5] = All Randomized Patients, 48-Month Data, Rlx60 (60 mg per day oral), N = 2557
# [6] = All Randomized Patients, 48-Month Data, Rlx120 (120 mg per day), N = 2572
# [7] = Patients Not Reporting a Cataract-Related Current Condition at Baseline, 36-Month Data, Rlx60 (60 mg per day oral), N = 2394
# [8] = Patients Not Reporting a Cataract-Related Current Condition at Baseline, 36-Month Data, Rlx120 (120 mg per day), N = 2418
# [9] = Patients Not Reporting a Cataract-Related Current Condition at Baseline, 48-Month Data, Rlx60 (60 mg per day oral), N = 2385
# [10] = Patients Not Reporting a Cataract-Related Current Condition at Baseline, 48-Month Data, Rlx120 (120 mg per day), N = 2408
# [11] = Patients Reporting a Cataract-Related Current Condition at Baseline, 36-Month Data, Rlx60 (60 mg per day oral), N = 163
# [12] = Patients Reporting a Cataract-Related Current Condition at Baseline, 36-Month Data, Rlx120 (120 mg per day), N = 154
# [13] = Patients Reporting a Cataract-Related Current Condition at Baseline, 48-Month Data, Rlx60 (60 mg per day oral), N = 172
# [14] = Patients Reporting a Cataract-Related Current Condition at Baseline, 48-Month Data, Rlx120 (120 mg per day), N = 164
smiles,measurement,setting,value
CC/C(=C(\c1ccccc1)c1ccc(OCCN(C)C)cc1)c1ccccc1 [tamoxifen],Effect on chloride channels,[1],blocked chloride channels
"Cl.O=C(c1ccc(OCCN2CCCCC2)cc1)c1c(-c2ccc(O)cc2)sc2cc(O)ccc12 [Rlx, [2-(4-hydroxyphenyl)-6-hydroxybenzo[b]thie-3-yl][4-[2-(1-piperidenyl)ethoxy]phenyl]methanone hydrochloride]",Endometrial cancer,endometrium / uterus,has not been associated with endometrial cancer
same,Endometrial stimulation,endometrium / uterus,not associated with endometrial stimulation
same,Dose dependence of the trend in cataract events,[2]; 120 mg per day vs 60 mg per day vs placebo,dose dependent
same,Risk of cataracts (adverse events relating to cataracts) as compared to placebo,"[2]; 7705 postmenopausal women, 60 or 120 mg per day, 48 months",trend toward decreasing risk of cataracts
same,"""Cataract Specified"" event, number of patients",[2]; [3],92
same,"""Cataract Specified"" event, percent of patients",[2]; [3],3.6%
same,"Any Cataract-related event, number of patients",[2]; [3],105
same,"Any Cataract-related event, percent of patients",[2]; [3],4.1%
same,"Surgery for cataract, number of patients",[2]; [3],60
same,"Surgery for cataract, percent of patients",[2]; [3],2.3%
same,"""Cataract Specified"" event, number of patients",[2]; [4],82
same,"""Cataract Specified"" event, percent of patients",[2]; [4],3.2%
same,"Any Cataract-related event, number of patients",[2]; [4],101
same,"Any Cataract-related event, percent of patients",[2]; [4],3.9%
same,"Surgery for cataract, number of patients",[2]; [4],60
same,"Surgery for cataract, percent of patients",[2]; [4],2.3%
same,"""Cataract Specified"" event, number of patients",[2]; [5],135
same,"""Cataract Specified"" event, percent of patients",[2]; [5],5.3%
same,"Any Cataract-related event, number of patients",[2]; [5],151
same,"Any Cataract-related event, percent of patients",[2]; [5],5.9%
same,"Surgery for cataract, number of patients",[2]; [5],85
same,"Surgery for cataract, percent of patients",[2]; [5],3.3%
same,"""Cataract Specified"" event, number of patients",[2]; [6],122
same,"""Cataract Specified"" event, percent of patients",[2]; [6],4.7%
same,"Any Cataract-related event, number of patients",[2]; [6],140
same,"Any Cataract-related event, percent of patients",[2]; [6],5.4%
same,"Surgery for cataract, number of patients",[2]; [6],78
same,"Surgery for cataract, percent of patients",[2]; [6],3.0%
same,"Any Cataract-related event, number of patients",[2]; [7],80
same,"Any Cataract-related event, percent of patients",[2]; [7],3.3%
same,"Any Cataract-related event, number of patients",[2]; [8],83
same,"Any Cataract-related event, percent of patients",[2]; [8],3.4%
same,"Any Cataract-related event, number of patients",[2]; [9],120
same,"Any Cataract-related event, percent of patients",[2]; [9],5.0%
same,"Any Cataract-related event, number of patients",[2]; [10],115
same,"Any Cataract-related event, percent of patients",[2]; [10],4.8%
same,"Any Cataract-related event, number of patients",[2]; [11],25
same,"Any Cataract-related event, percent of patients",[2]; [11],15.3%
same,"Any Cataract-related event, number of patients",[2]; [12],18
same,"Any Cataract-related event, percent of patients",[2]; [12],11.7%
same,"Any Cataract-related event, number of patients",[2]; [13],31
same,"Any Cataract-related event, percent of patients",[2]; [13],18.0%
same,"Any Cataract-related event, number of patients",[2]; [14],25
same,"Any Cataract-related event, percent of patients",[2]; [14],15.2%
